Reference: patent publication US20170190671A1, “BIS(ARYL)CATECHOL DERIVATIVES AS HERBICIDES” (E I DU PONT DE NEMOURS AND COMPANY, priority 2014, published 2017)

Columns and labels:
Assay type in all cases: in vivo
[1] = test system: galium (catchweed bedstraw, Galium aparine); test: Test C postemergence; conditions: Galium, post-emergence, 336 h, Postemergence, scale 0 to 100, read-out: Plant response rating, Galium
Procedure, shortened: (§1)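 Greenhouse test, preemergence on seeded soil or postemergence on 1- to 4-leaf plants. Response is a visual 0-100 rating versus controls, taken 13-15 days after treatment.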

[2] = test system: pigweed (Amaranthus retroflexus); test: Test C postemergence; conditions: Amaranthus retroflexus, post-emergence, 336 h, Postemergence, scale 0 to 100, read-out: Plant response rating, Pigweed
Procedure, shortened: as §1

[3] = test system: waterhemp (common waterhemp, Amaranthus rudis); test: Test C postemergence; conditions: Amaranthus tuberculatus, post-emergence, Postemergence, scale 0 to 100, read-out: Plant response rating, Waterhemp
Procedure, shortened: as §1

[4] = test system: yellow nutsedge (Cyperus esculentus); test: Test C postemergence; conditions: Cyperus, post-emergence, 336 h, Postemergence, scale 0 to 100, read-out: Plant response rating, Nutsedge, Yellow
Procedure, shortened: as §1

[5] = test system: wild oat (Avena fatua); test: Test C postemergence; conditions: Avena fatua, post-emergence, Postemergence, scale 0 to 100, read-out: Plant response rating, Oat, Wild
Procedure, shortened: as §1

[6] = test system: kochia (Kochia scoparia); test: Test C postemergence; conditions: Bassia scoparia, post-emergence, Postemergence, scale 0 to 100, read-out: Plant response rating, Kochia
Procedure, shortened: as §1

[7] = test system: chickweed (common chickweed, Stellaria media); test: Test C postemergence; conditions: Stellaria media, post-emergence, Postemergence, scale 0 to 100, read-out: Plant response rating, Chickweed
Procedure, shortened: as §1

[8] = test system: large (Lg) crabgrass (Digitaria sanguinalis); test: Test C preemergence; conditions: Digitaria sanguinalis, pre-emergence, 336 h, preemergence, scale 0 to 100, read-out: Plant response rating, Crabgrass, Large
Procedure, shortened: as §1

[9] = test system: morningglory (Ipomoea coccinea); test: Test C preemergence; conditions: Ipomoea, pre-emergence, 336 h, preemergence, scale 0 to 100, read-out: Plant response rating, Morningglory
Procedure, shortened: as §1

[10] = test system: soybean (Glycine max); test: Test C preemergence; conditions: Glycine max, pre-emergence, preemergence, scale 0 to 100, read-out: Plant response rating, Soybean
Procedure, shortened: as §1

[11] = test system: barnyardgrass (Echinochloa crus-galli); test: Test C preemergence; conditions: Echinochloa crus-galli, pre-emergence, preemergence, scale 0 to 100, read-out: Plant response rating, Barnyardgrass
Procedure, shortened: as §1

[12] = test system: pigweed (Amaranthus retroflexus); test: Test C preemergence; conditions: Amaranthus retroflexus, pre-emergence, 336 h, preemergence, scale 0 to 100, read-out: Plant response rating, Pigweed
Procedure, shortened: as §1

[13] = test system: waterhemp (common waterhemp, Amaranthus rudis); test: Test C preemergence; conditions: Amaranthus tuberculatus, pre-emergence, preemergence, scale 0 to 100, read-out: Plant response rating, Waterhemp
Procedure, shortened: as §1

[14] = test system: oilseed rape (Brassica napus); test: Test C preemergence; conditions: Brassica napus, pre-emergence, preemergence, scale 0 to 100, read-out: Plant response rating, Oilseed Rape
Procedure, shortened: as §1

[15] = test system: ragweed (common ragweed, Ambrosia elatior); test: Test C preemergence; conditions: Ambrosia artemisiifolia, pre-emergence, 336 h, preemergence, scale 0 to 100, read-out: Plant response rating, Ragweed
Procedure, shortened: as §1

[16] = test system: corn (Zea mays); test: Test C preemergence; conditions: Zea mays, pre-emergence, 336 h, preemergence, scale 0 to 100
Procedure, shortened: as §1

[17] = test system: winter wheat (Triticum aestivum); test: Test C preemergence; conditions: Triticum aestivum, pre-emergence, 336 h, preemergence, scale 0 to 100, read-out: Plant response rating, Wheat
Procedure, shortened: as §1

[18] = test system: blackgrass (Alopecurus myosuroides); test: Test C preemergence; conditions: Alopecurus myosuroides, pre-emergence, 336 h, preemergence, scale 0 to 100, read-out: Plant response rating, Blackgrass
Procedure, shortened: as §1

[19] = test system: johnsongrass (Sorghum halepense); test: Test C preemergence; conditions: Sorghum halepense, pre-emergence, 336 h, preemergence, scale 0 to 100, read-out: Plant response rating, Johnsongrass
Procedure, shortened: as §1

[20] = test system: giant foxtail (Setaria faberii); test: Test C preemergence; conditions: Setaria faberi, pre-emergence, 336 h, preemergence, scale 0 to 100, read-out: Plant response rating, Foxtail, Giant
Procedure, shortened: as §1

[21] = test system: velvetleaf (Abutilon theophrasti); test: Test C preemergence; conditions: Abutilon theophrasti, pre-emergence, preemergence, scale 0 to 100, read-out: Plant response rating, Velvetleaf
Procedure, shortened: as §1

[22] = test system: Italian ryegrass (Lolium multiflorum); test: Test C preemergence; conditions: Lolium multiflorum, pre-emergence, 336 h, preemergence, scale 0 to 100, read-out: Plant response rating, Ryegrass, Italian
Procedure, shortened: as §1

## Fc1cnc(Oc2c(Cl)cccc2Oc2ncc(Cl)cn2)nc1 [Compound 18, 5-chloro-2-[5-chloro-6-[(5-fluoro-2-pyrimidinyl)oxy]phenoxy]pyrimidine]
[1]; 31 g ai/ha
  pest or weed control at 31 g/ha: 70%
[1]; 62 g ai/ha
  pest or weed control at 62 g/ha: 90%
[1]; 125 g ai/ha
  pest or weed control at 125 g/ha: 95%
[1]; 250 g ai/ha
  pest or weed control at 250 g/ha: 95%
[2]; 31 g ai/ha
  pest or weed control at 31 g/ha: 80%
[2]; 62 g ai/ha
  pest or weed control at 62 g/ha: 90%
[2]; 125 g ai/ha
  pest or weed control at 125 g/ha: 95%
[2]; 250 g ai/ha
  pest or weed control at 250 g/ha: 98%
[3]; 31 g ai/ha
  pest or weed control at 31 g/ha: 80%
[3]; 62 g ai/ha
  pest or weed control at 62 g/ha: 85%
[3]; 125 g ai/ha
  pest or weed control at 125 g/ha: 95%
[3]; 250 g ai/ha
  pest or weed control at 250 g/ha: 98%
[4]; 31 g ai/ha
  pest or weed control at 31 g/ha: 5%
[4]; 62 g ai/ha
  pest or weed control at 62 g/ha: 10%
[4]; 125 g ai/ha
  pest or weed control at 125 g/ha: 10%
[4]; 250 g ai/ha
  pest or weed control at 250 g/ha: 10%
[5]; 31 g ai/ha
  pest or weed control at 31 g/ha: 0%
[5]; 62 g ai/ha
  pest or weed control at 62 g/ha: 0%
[5]; 125 g ai/ha
  pest or weed control at 125 g/ha: 5%
[5]; 250 g ai/ha
  pest or weed control at 250 g/ha: 30%
[6]; 31 g ai/ha
  pest or weed control at 31 g/ha: 30%
[6]; 62 g ai/ha
  pest or weed control at 62 g/ha: 50%
[6]; 125 g ai/ha
  pest or weed control at 125 g/ha: 85%
[6]; 250 g ai/ha
  pest or weed control at 250 g/ha: 95%
[7]; 31 g ai/ha
  pest or weed control at 31 g/ha: 50%
[7]; 62 g ai/ha
  pest or weed control at 62 g/ha: 55%
[7]; 125 g ai/ha
  pest or weed control at 125 g/ha: 80%
[7]; 250 g ai/ha
  pest or weed control at 250 g/ha: 95%
[8]; 31 g ai/ha
  pest or weed control at 31 g/ha: 100%
[8]; 62 g ai/ha
  pest or weed control at 62 g/ha: 100%
[8]; 125 g ai/ha
  pest or weed control at 125 g/ha: 100%
[9]; 31 g ai/ha
  pest or weed control at 31 g/ha: 10%
[9]; 62 g ai/ha
  pest or weed control at 62 g/ha: 60%
[9]; 125 g ai/ha
  pest or weed control at 125 g/ha: 70%
[10]; 31 g ai/ha
  plant injury at 31 g/ha: 60%
[10]; 62 g ai/ha
  plant injury at 62 g/ha: 80%
[10]; 125 g ai/ha
  plant injury at 125 g/ha: 90%
[10]; 250 g ai/ha
  plant injury at 250 g/ha: 90%
[11]; 31 g ai/ha
  pest or weed control at 31 g/ha: 75%
[11]; 62 g ai/ha
  pest or weed control at 62 g/ha: 100%
[11]; 125 g ai/ha
  pest or weed control at 125 g/ha: 100%
[11]; 250 g ai/ha
  pest or weed control at 250 g/ha: 100%
[12]; 31 g ai/ha
  pest or weed control at 31 g/ha: 100%
[12]; 62 g ai/ha
  pest or weed control at 62 g/ha: 100%
[12]; 125 g ai/ha
  pest or weed control at 125 g/ha: 100%
[13]; 31 g ai/ha
  pest or weed control at 31 g/ha: 100%
[13]; 62 g ai/ha
  pest or weed control at 62 g/ha: 100%
[13]; 125 g ai/ha
  pest or weed control at 125 g/ha: 100%
[13]; 250 g ai/ha
  pest or weed control at 250 g/ha: 100%
[14]; 31 g ai/ha
  plant injury at 31 g/ha: 100%
[14]; 62 g ai/ha
  plant injury at 62 g/ha: 100%
[14]; 125 g ai/ha
  plant injury at 125 g/ha: 100%
[14]; 250 g ai/ha
  plant injury at 250 g/ha: 100%
[15]; 31 g ai/ha
  pest or weed control at 31 g/ha: 85%
[15]; 62 g ai/ha
  pest or weed control at 62 g/ha: 100%
[15]; 125 g ai/ha
  pest or weed control at 125 g/ha: 95%
[15]; 250 g ai/ha
  pest or weed control at 250 g/ha: 95%
[16]; 31 g ai/ha
  Corn plant response rating (crop injury, 0 = no effect, 100 = complete kill) at 31 g/ha: 10%
[16]; 62 g ai/ha
  Corn plant response rating (crop injury, 0 = no effect, 100 = complete kill) at 62 g/ha: 40%
[16]; 125 g ai/ha
  Corn plant response rating (crop injury, 0 = no effect, 100 = complete kill) at 125 g/ha: 60%
[17]; 31 g ai/ha
  plant injury at 31 g/ha: 0%
[17]; 62 g ai/ha
  plant injury at 62 g/ha: 15%
[17]; 125 g ai/ha
  plant injury at 125 g/ha: 70%
[17]; 250 g ai/ha
  plant injury at 250 g/ha: 85%
[18]; 31 g ai/ha
  pest or weed control at 31 g/ha: 15%
[18]; 62 g ai/ha
  pest or weed control at 62 g/ha: 90%
[18]; 125 g ai/ha
  pest or weed control at 125 g/ha: 95%
[19]; 31 g ai/ha
  pest or weed control at 31 g/ha: 50%
[19]; 62 g ai/ha
  pest or weed control at 62 g/ha: 70%
[19]; 125 g ai/ha
  pest or weed control at 125 g/ha: 90%
[20]; 31 g ai/ha
  pest or weed control at 31 g/ha: 98%
[20]; 62 g ai/ha
  pest or weed control at 62 g/ha: 100%
[20]; 125 g ai/ha
  pest or weed control at 125 g/ha: 100%
[21]; 31 g ai/ha
  pest or weed control at 31 g/ha: 85%
[21]; 62 g ai/ha
  pest or weed control at 62 g/ha: 100%
[21]; 125 g ai/ha
  pest or weed control at 125 g/ha: 100%
[21]; 250 g ai/ha
  pest or weed control at 250 g/ha: 100%
[22]; 31 g ai/ha
  pest or weed control at 31 g/ha: 30%
[22]; 62 g ai/ha
  pest or weed control at 62 g/ha: 70%
[22]; 125 g ai/ha
  pest or weed control at 125 g/ha: 85%
[22]; 250 g ai/ha
  pest or weed control at 250 g/ha: 95%
